Test results taken from US9180094B2, “High porosity materials, scaffolds, and method of making” (The Texas A&M University System, priority 2011, dated 2015).
Values belong to the molecule of their own block, whether it stands above or below them.

Columns and labels:
[1] = test system: human mesenchymal stem cells; assay: Cell viability with scaffold samples introduced into the medium; format: cell-based; settings: scaffold prepared with 5 wt. % initiator in the medium, after 72 hours
Procedure: Said initiators are typically those with decomposition temperature ranging from between about 25 to about 100° C. Examples include but are not limited to azobis-isobutyronitrile (AIBN) and benzoyl peroxide (BPO). Preliminary tack-free time studies of polyHIPE emulsions prepared with 5 wt. % AIBN or BPO indicated a […] cure time compared with emulsions prepared with 5 wt. % ammonium persulfate. The time to cure was about 7-12 hours with an ammonium persulfate initiator (aqueous phase free radical initiator) as compared with about 1.5 hours with the AIBN or BPO (organic soluble free radical initiator).

cells = assay: Cytocompatibility of cells after addition of surfactant PGPR; format: cell-based; settings: concentrations that permit emulsification (0.1, 1.0 or 5 wt. %)
Source text: FIG. 3C depicts cytocompability of cells after addition of the surfactant, PGPR, at 0.1 wt. %, 1.0 wt. % or 5 wt. %;

[2] = test system: human mesenchymal stem cells (hMSCs); assay: hMSC adhesion and spreading on scaffolds and films; format: cell-based; settings: polyHIPE scaffolds fabricated with PGPR, AIBN initiated, between 3 and 24 hours after seeding
Procedure: For three-dimensional scaffolds described herein, the behavior of the surfactant may be further modified to improve cell adhesion to the scaffold of cells, such as fibroblasts, mesenchymal stem cells, osteoblasts, chondrocytes, and other matrix formed cells. […] PolyHIPEs were prepared with PGPR and initiated with AIBN. When cured, as previously described, samples were sectioned using a precision diamond wafering saw. Prior to seeding with human mesenchymal stem cells (hMSCs), the polyHIPEs samples were soaked in 70% ethanol to sterilize, subjected to a wetting ladder to increase aqueous solution penetration, and incubated overnight in medium enhanced with 40 wt. % fetal bovine serum (FBS). The scaffolds were then seeded at a concentration of about 2×10^3 and 10×10^3 cells/cm^2. On scaffolds fabricated with PGPR, hMSC adhesion and spreading declined when measured between 3 and 24 hours after seeding. It was hypothesized that PGPR may be affecting protein adsorption and/or their conformation when attempting to localize on the polyHIPE scaffold. This was further analyzed on PFDMA films prepared with and without PGPR. The effect of PGPR on protein adsorption and/or conformation was confirmed at 24 hours, in which hMSC adhesion and spreading decreased on PGPR-PFDMA film specimens as compared with control (PFDMA alone) specimens. […]

Macromer viscosity = format: physicochemical
Procedure: Further described is a method of preparing a polyHIPE. In one form the polyHIPE is prepared with a biodegradable fumerate having ester linkages. One example is PFDMA. The method further comprises a two-step process. The first step produced an intermediate molecule as a diester intermediate. In one form the intermediate was bis-(1,2-hydroxypropyl)fumarate (FIG. 1A). The intermediate was then functionalized with methacrylate endgroups (FIG. 1B). With purification, the structure of the resulting formed material, PFDMA, was confirmed with ^1H NMR, as represented in FIG. 2. Integration ratio of methacryloyl protons to fumarate protons in the ^1H NMR spectra was confirmed and the formed structure was, in this example, a PFDMA as a single fumarate unit with two terminal methacrylate groups. The average functionalization was calculated to be greater than 80%. In some embodiments, functionalization was calculated to be at or about 83%. The methacrylate and fumarate groups provided sites for radical crosslinking as further described below. It is, in part, the crosslinking as described herein that allows cure of the HIPE at physiological temperatures.

Molecule: CC(C)(C#N)N=NC(C)(C)C#N [AIBN, azobis-isobutyronitrile]
effect on cell viability [1]: Neither 5 wt. % AIBN or 5 wt. % BPO appeared to greatly effect cell viability

Molecule: O=C(OOC(=O)c1ccccc1)c1ccccc1 [BPO, benzoyl peroxide]
effect on cell viability [1]: Neither 5 wt. % AIBN or 5 wt. % BPO appeared to greatly effect cell viability

cytocompatibility with cells (cells): cytocompatible
Molecule: polyglycerol polyricinoleate [PGPR 4125]
hMSC adhesion and spreading on scaffolds [2]: declined

Molecule: propylene fumarate dimethacrylate [PFDMA]
viscosity (Macromer viscosity): about 125 cP
